Test results from patent US8440701B2, “Trisubstituted 1,2,4 triazoles” (Janssen Pharmaceutica NV, priority 2007, dated 2013).

How the values were obtained:
hα7-wt nAChR [1] = biological target: T1, hα7-wt nAChR (Homo sapiens, UniProt P36544); assay: Whole-cell voltage-clamp recording, PAM type classification; format: cell-based; parameters: key: Type 1 compounds enhance the effect size of the current elicited by 1 mM choline but minimally alter the kinetics of the receptor.; Type 2 compounds enhance the effect size of the current elicited by 1 mM choline while reducing the rate and/or the extent of desensitization.; Type 3 compounds enhance the effect size of the current elicited by 1 mM choline. When tested at higher concentrations up to 10 μM they completely inhibit desensitization, in particular a 1 mM choline application of 250 milliseconds.; Type 4 compounds allow for an initial desensitization of the receptor followed by a re-opening of the receptor during agonist application; conditions: qualitative kinetic properties; 1 mM choline; hα7-wt nAChR-expressing GH4C1 cells
T1 construct: expressed in transfected cells; host or cells: GH4C1 cells (recombinant, stably over-expressing)
Method: The compounds of the present invention are classified as type 1-4, based on qualitative kinetic properties, as determined by whole-cell voltage-clamp recordings. This classification is based on the effect of an α7 PAM compound, as described hereinbefore, on the signal elicited by an agonist application. In particular, said agonist is choline at a concentration of 1 mM. In a preferred experimental setting, said α7 PAM compound and choline are simultaneously applied to the cell, as described hereinafter. Desensitization is defined as the closure of the receptor upon activation during the application of the agonist in whole-cell voltage-clamp electrophysiology measurements seen as the reduction of the […] current after initial activation by the agonist.
The definition of the PAM types 1-4 is described hereinafter: • Type 1 compounds enhance the effect size of the current elicited by 1 mM choline but minimally alter the kinetics of the receptor. In particular, the rate and the extent of desensitization, elicited by the agonist, is not affected. The compound-modulated response to 1 mM choline, therefore, is a close to linear scaling of the 1 mM choline response in absence of the α7 PAM compound. • Type 2 compounds enhance the effect size of the current elicited by 1 mM choline while reducing the rate and/or the extent of desensitization. • Type 3 compounds enhance the effect size of the current elicited by 1 mM choline. […] At low-potency concentrations of the α7 PAM compound, the agonist-induced activation, which is followed by desensitization, can still be separated from the compound-induced re-opening as an initial inward current-maximum. At higher potency concentrations of the α7 PAM compound, the re-opening occurs faster than the closure due to desensitization so that the initial current-maximum disappears.
The compounds of the present invention also have a potentiating effect on the response to choline when measured by whole-cell voltage-clamp electrophysiology in GH4C1 cells stably over-expressing the human wild-type α7 receptor, as described hereinafter.
Whole-Cell Voltage-Clamp Recording
Whole-cell voltage-clamp recording from mammalian cells has provided a powerful means of assessing the function of membrane proteins thought to be subunits of ligand-gated ion channels. Activation of such proteins by endogenous or exogenous ligands causes opening of a pore associated with the receptor through which ions flow down their electrochemical gradient. In the case of the hα7-wt nAChR-expressing GH4C1 recombinant cell line the preferential permeability to calcium of this receptor means that calcium flows into the cell upon activation by ACh, choline and other nicotinic ligands giving rise to a calcium current. Since this receptor rapidly desensitizes in the presence of an agonist it is important that an application system is used which is capable of very rapid switching of solutions (<100 ms) to prevent partial or full desensitisation of receptor responses coincident with the time of agonist application. Consequently, a second convenient technique to assess the enhancement of nicotinic efficacy is whole-cell voltage-clamp recording from hα7-wt nAChR-expressing GH4C1 cells coupled with a rapid-application system.
• The external recording solution consisted of 152 mM NaCl, 5 mM KCl, 1 mM MgCl2, 1 mM Calcium, 10 mM HEPES; pH 7.3. The internal recording solution consisted of 140 mM CsCl, 10 mM HEPES, 10 mM EGTA, 1 mM MgCl2, pH 7.3. • b) Patch-clamp recording was carried out using a Patch-clamp amplifier (Multiclamp 700A, Axon Instruments, CA, USA). The membrane potential of hα7-wt nAChR-expressing GH4C1 cells was voltage-clamped in the whole cell configuration (Hamill et al, 1981) with a borosilicate glass electrode of 1.5-3 MΩ tip resistance when filled with the internal recording solution. […]

hα7-wt nAChR [2] = biological target: T1, hα7-wt nAChR; assay: Ca2+ flux imaging (FDSS), potentiation of choline response; format: cell-based; conditions: for EC50: hα7-wt nAChR-expressing GH4C1 cells, potentiation of 100 μM choline, compounds 0.01 μM to 30 μM
Method: Ca^2+ Flux Imaging (FDSS)
• Hanks buffered saline solution (HBSS, Invitrogen, Belgium), supplemented with 10 mM HEPES (Invitrogen, Belgium), CaCl2 to a final concentration of 5 mM, 0.1% Bovine serum albumin (Sigma-Aldrich NV, Belgium). b) Calcium-Sensitive Dye—Fluo-4AM • Fluo-4AM (Molecular Probes, USA) was dissolved in DMSO containing 10% Pluronic acid (Molecular Probes, USA) to give a stock solution which was diluted in assay buffer supplemented with 5 mM probenicid (Sigma, Aldrich NV, Belgium) to give a final concentration of 2 μM. c) 384-Well Plates • Black 384 well plate black/clear plates, PDL pre-coated (Corning, Incorporated, USA) d) Calcium Flux Measurement • A Functional drug screening system (FDSS, Hamamatsu) was used to measure intracellular free-calcium flux signals. Method
Monolayers of hα7-wt nAChR-expressing GH4C1 cells were grown in multi-well plates, in particular black-sided, transparent bottomed 384 well plates coated with poly-D-lysine for 24 hours prior to loading with a fluorescent calcium indicator, in a particular embodiment loading with fluo-4AM for up to 120 minutes.
PAM activity was detected in real time by applying the compound to be tested to the loaded cells along with a α7 nicotinic receptor agonist during constant monitoring of the cellular calcium mobilization by fluorescence in a FDSS. Compounds giving peak fluorescent responses greater than the response due to agonist alone, were considered to be α7 nAChR PAM's. In a particular embodiment, the α7 nicotinic receptor agonist was choline, a more particular embodiment choline applied at a sub-maximal concentration of 100 μM. In a further setting of the present invention the compounds to be tested were applied prior to the α7 nicotinic receptor agonist, in a particular embodiment up to 10 minutes prior to the agonist.
A control response to choline was calculated on each plate from the difference in peak in fluorescence in wells receiving either choline or assay buffer alone. Compounds of the present invention were tested at a concentration range from 0.01 μM to 30 μM. Compounds were considered to have an interesting activity when they potentiated the choline signal at least with 200% when tested at a concentration of 30 μM (the efficacy of 100 μM choline was defined as 100% in the absence of a PAM).
EC50 values (potency), maximal effect (% efficacy), and Hill slopes were estimated by fitting the sigmoidal equation to the data using GraphPad Prism (GraphPad Software, Inc., San Diego, Calif.). An EC50 (or pEC50) was determined as a concentration relating to half the maximal effect, when a clear sigmoidal curve with top plateau was obtained.

T1 sequence (P36544 23-502): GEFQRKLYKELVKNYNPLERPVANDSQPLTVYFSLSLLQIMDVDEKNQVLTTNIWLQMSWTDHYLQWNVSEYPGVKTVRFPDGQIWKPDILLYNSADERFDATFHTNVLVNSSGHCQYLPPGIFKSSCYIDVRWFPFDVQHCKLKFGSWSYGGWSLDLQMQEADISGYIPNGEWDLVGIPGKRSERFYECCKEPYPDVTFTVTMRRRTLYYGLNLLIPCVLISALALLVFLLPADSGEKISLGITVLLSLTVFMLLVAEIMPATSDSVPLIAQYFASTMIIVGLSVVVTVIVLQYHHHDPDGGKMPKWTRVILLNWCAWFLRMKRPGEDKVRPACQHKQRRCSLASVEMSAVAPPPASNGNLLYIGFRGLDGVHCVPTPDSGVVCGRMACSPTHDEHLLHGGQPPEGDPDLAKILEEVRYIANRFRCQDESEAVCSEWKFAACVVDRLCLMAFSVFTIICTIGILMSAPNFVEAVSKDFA

SMILES: CCCCC(O)Cn1nc(Nc2ccc(F)c(F)c2)nc1-c1cc(C)nc(C)c1 (single isomer, unassigned; (+)) [Compound E5, (+)-1-[3-(3,4-Difluoro-phenylamino)-5-(2,6-dimethyl-pyridin-4-yl)-[1,2,4]triazol-1-yl]-hexan-2-ol]
- PAM_type (hα7-wt nAChR [1]): 2
- EC50 (hα7-wt nAChR [2]): 204 nM
- melting point: 135 °C

SMILES: CC[C@H](O)Cn1nc(Nc2ccc(F)c(F)c2)nc1-c1cc(C)nc(C)c1 [Compound E1, (S)-1-[3-(3,4-Difluoro-phenylamino)-5-(2,6-dimethyl-pyridin-4-yl)-[1,2,4]triazol-1-yl]-butan-2-ol]
- PAM_type (hα7-wt nAChR [1]): 2
- EC50 (hα7-wt nAChR [2]): 589 nM
- melting point: 166.04 °C

SMILES: CCNc1cc(-c2nc(Nc3cccc(Cl)c3)nn2C[C@@H](O)CC)ccn1 [Compound E2, (S)-1-[3-(3-Chloro-phenylamino)-5-(2-ethylamino-pyridin-4-yl)-[1,2,4]triazol-1-yl]-butan-2-ol]
- PAM_type (hα7-wt nAChR [1]): 2
- EC50 (hα7-wt nAChR [2]): 355 nM
- melting point: 161.99 °C

SMILES: CCC(O)Cn1nc(Nc2ccc(F)c(F)c2)nc1-c1ccnc(NCCOC)c1 (stereo not shown) [Compound E9]
- PAM_type (hα7-wt nAChR [1]): 2
- Emax (hα7-wt nAChR [2]; GH4-C1, maximal effect, efficacy of 100 μM choline defined as 100% in the absence of a PAM, GH4C1 cells): 1000%
- EC50 (hα7-wt nAChR [2]): 933 nM
- melting point: 137.06 °C

SMILES: CCC(O)Cn1nc(Nc2cccc(Cl)c2)nc1-c1ccnc(C)c1 (stereo not shown) [Compound E17]
- PAM_type (hα7-wt nAChR [1]): 2
- EC50 (hα7-wt nAChR [2]): 1200 nM
- melting point: 144.31 °C

SMILES: CC[C@H](O)Cn1nc(Nc2ccc(F)c(C)c2)nc1-c1ccnc(C)c1 [Compound E19, (S)-1-[3-(4-Fluoro-3-methyl-phenylamino)-5-(2-methyl-pyridin-4-yl)-[1,2,4]triazol-1-yl]-butan-2-ol]
- PAM_type (hα7-wt nAChR [1]): 2
- EC50 (hα7-wt nAChR [2]): 1950 nM
- melting point: 133.85 °C

SMILES: CCNc1cc(-c2nc(Nc3ccc(F)c(F)c3)nn2CC(O)CC)ccn1 (stereo not shown) [Compound E25]
- PAM_type (hα7-wt nAChR [1]): 1
- EC50 (hα7-wt nAChR [2]): 692 nM
- melting point: 156.18 °C

SMILES: CCNc1cc(-c2nc(Nc3cccc(Cl)c3)nn2C[C@H](O)CC)ccn1 [Compound E29, (R)-1-[3-(3-chloro-phenylamino)-5-(2-ethylamino-pyridin-4-yl)-[1,2,4]triazol-1-yl]-butan-2-ol]
- PAM_type (hα7-wt nAChR [1]): 1
- EC50 (hα7-wt nAChR [2]): 1020 nM
- melting point: 158.66 °C

SMILES: CC[C@H](O)Cn1nc(Nc2cc(OC)cc(C(F)(F)F)c2)nc1-c1cc(C)nc(C)c1 [Compound E30, (S)-1-[5-(2,6-Dimethyl-pyridin-4-yl)-3-(3-methoxy-5-trifluoromethyl-phenylamino)-[1,2,4]triazol-1-yl]-butan-2-ol]
- PAM_type (hα7-wt nAChR [1]): 2
- EC50 (hα7-wt nAChR [2]): 200 nM
- melting point: 166.05 °C
